Laboratory results as given in article PMC3368874, “Characterization of 4-HNE Modified L-FABP Reveals Alterations in Structural and Functional Dynamics” (PLoS ONE, 2012).
Like-named read-outs stand apart in the source and are kept apart here.

Legend:
L-FABP [1] = tested on: L-FABP
Description: All protocols were approved by the Institutional Animal Care and Use Committee (IACUC) at the University of Colorado Anschutz Medical Campus. Male C57Bl/6J mice were fed a modified Lieber-DeCarli Diet (BioServ, Frenchtown, NJ) consisting of 45% fat-derived calories and 15% protein-derived calories with the remaining caloric content derived from either ethanol or maltose-dextrin. Mice were fed for a period of 6 weeks according to previous laboratory studies, [20]. At termination, the liver was harvested for whole tissue and histological evaluation as previously described, [21]. Subcellular fractions were isolated from whole liver tissue using sucrose gradient centrifugation.
200 ug of whole cell homogenates from both control and ethanol mice (n = 6/group) were incubated with 5 ug of mouse monoclonal ubiquitin antibody (Abcam, cat# ab411) for 2 hours at 4°C on a rotator to allow ubiquitin protein to bind to antibody. 100 ul of a 50% Protein G slurry (prepared and stored in 0.02% sodium azide and PBS, pH 7.4) was added to the reaction and incubated at 4°C rotating overnight. Samples were washed 5×5 minutes in PBST (PBS +[…]) and denatured in SDS-PAGE loading buffer at 95°C for 5 minutes. Immunoprecipitated protein was separated via SDS-PAGE and transferred to PVDF, and immunoblotted for L-FABP (Abcam, cat # 7847). Density of ubiquitinated bands were normalized to levels of L-FABP/β-Actin determined by immunoblotting.
Total RNA was isolated from […] of frozen tissue from control and ethanol-fed mice (n = 3) using RNeasy Mini Kits (Qiagen,Valencia, CA).

L-FABP [2] = details: following ethanol consumption in rats; cited from earlier work
FABP1 = details: 4 week ramped ethanol feeding regimen; cited from earlier work
rL-FABP [3] = target: T1, rL-FABP (Mus musculus, UniProt P12710); test: Displacement of ANS by fatty acids, WT rL-FABP; type: binding; details: for bi (counts inhibitable) / Ki: 45 µM ANS, 1 µM protein; for Ki: read-out: ki (inhibition constant)
T1 construct: made in house; host or cells: Escherichia coli BL21 (DE3)
T1 sequence (P12710 1-127): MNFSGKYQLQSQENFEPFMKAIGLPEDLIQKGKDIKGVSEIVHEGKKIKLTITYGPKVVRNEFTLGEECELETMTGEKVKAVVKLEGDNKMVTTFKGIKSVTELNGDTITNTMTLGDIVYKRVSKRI
Experimental: (§1) Lipid displacement assays were adapted from previous publications, [30]. Briefly, lipids were used to displace ANS bound to rL-FABP to assess how 4-HNE modification affects affinity towards more biologic ligands. Lipid stocks were diluted in absolute ethanol (10 mM, 5 mM, 1 mM, 0.1 mM) and prepared in a nitrogen gas chamber. Using conditions similar to ANS binding, increasing concentrations of FAs [stearate (SA), oleate (OA), and LA] were titrated into a pre-equilibrated solution containing 45 µM ANS, 1 µM r-LFABP, and 50 mM tricine (pH 8.0). The sample was mixed for an additional 30 seconds and the excitation and emission of ANS was measured as mentioned, where the loss of fluorescence indicates affinity towards the lipid.
(§2) For the displacement assays, one-site inhibition analysis of the data was utilized based on the fit of the data (instead of a two-site inhibition analysis) (eq2). Fluorescence counts that are inhibitable are denoted as bi, and residual counts are br. The concentration of OA, SA or LA is denoted as [FA]. The Hill constant, η, indicates the cooperativity between the binding sites, where if η >1 the sites are positively cooperative, η <1 the site are negatively cooperative, and if η = 1 the sites are non-cooperative. [drawing 2] (2)

4-HNE adducted rL-FABP = target: T2, 4-HNE adducted rL-FABP (Mus musculus, UniProt P12710); test: Displacement of ANS by fatty acids, 1X 4-HNE treated rL-FABP; type: binding; details: for bi (counts inhibitable) / Ki: 1X 4-HNE (53.95 µM) treated rL-FABP; for Ki: read-out: ki (inhibition constant); for br (counts residual) / n (hill coefficient): 1X 4-HNE treated rL-FABP; for reduction of maximal binding to the FA by 4-HNE: 1X 4-HNE treated versus WT rL-FABP
T2 construct: made in house; host or cells: Escherichia coli BL21 (DE3)
T2 sequence (P12710 1-127): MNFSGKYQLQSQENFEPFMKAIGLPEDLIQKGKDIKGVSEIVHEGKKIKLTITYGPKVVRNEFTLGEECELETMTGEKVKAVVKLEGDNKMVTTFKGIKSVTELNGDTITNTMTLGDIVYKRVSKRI
Experimental: as §1, §2

rL-FABP [4] = target: T1, rL-FABP; test: ANS equilibrium binding to native rL-FABP (fluorescence)
Experimental: (§3) Steady-state fluorescence spectra were measured using a HORIBA JOBIN YVON FluoroMax-3 Fluorometer (Edison, NJ USA). The binding of ANS to rL-FABP was monitored following excitation at 370 nm and emission at 475 nm, with slits set at 2 and 4 nm, respectively. Measurements were taken at ambient temperature in a 0.7 mL fluorescence cuvette (Starna Cells, Atascadero, CA). Equilibrium binding studies were conducted with saturating concentrations of ANS according to previous studies, [30] with slight modifications. Briefly, ANS (0–45 µM) was titrated into 1 µM rL-FABP in 50 mM tricine buffer (pH 8.0), mixed for 30 seconds, and emission spectra were recorded. rL-FABP was either treated with 4-HNE (0.1X [5.93 µM], 1X [53.93 µM], or 5X [245.09 µM]) or the arginine blocker phenylglyoxal (PG) (10 mM), or a combination of the two (PG +5X). Following treatments, protein was dialyzed overnight in tricine buffer, pH 8.0. Preparation of ANS was conducted according to Denicola et al., where it was solubilized in absolute ethanol and quantified at Abs372 with an extinction coefficient of 8,000 cm^−1·M^−1 prior to use.
(§4) Statistical analysis and generation of graphs was performed using GraphPad Prism (v 4.02; GraphPad Software, San Diego, CA) and SigmaPlot (v10.0; Systat Software, San Jose, CA). Statistical differences between control and treated samples were assessed using a paired Student’s t test or a one-way ANOVA with Tukey’s post-test. Differences were considered significant if p<0.05. Nonlinear regression (curve fit) analysis was performed using a two-site binding hyperbola (eq 1), where ΔF is the enhancement in fluorescence intensity upon the binding of ANS to L-FABP to a point of saturation (Bmax). [drawing 1] (1)

4-HNE modified rL-FABP = target: T3, 4-HNE modified rL-FABP (Mus musculus, UniProt P12710); test: ANS equilibrium binding to 4-HNE treated rL-FABP (fluorescence)
T3 construct: made in house; host or cells: Escherichia coli BL21 (DE3)
T3 sequence (P12710 1-127): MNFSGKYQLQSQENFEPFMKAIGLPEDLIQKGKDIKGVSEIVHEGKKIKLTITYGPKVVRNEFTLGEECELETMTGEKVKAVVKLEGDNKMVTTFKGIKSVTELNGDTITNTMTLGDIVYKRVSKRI
Experimental: as §3, §4

PG treated rL-FABP = target: T4, PG treated rL-FABP (Mus musculus, UniProt P12710); test: ANS equilibrium binding to phenylglyoxal (PG) treated rL-FABP
T4 construct: made in house; host or cells: Escherichia coli BL21 (DE3)
T4 sequence (P12710 1-127): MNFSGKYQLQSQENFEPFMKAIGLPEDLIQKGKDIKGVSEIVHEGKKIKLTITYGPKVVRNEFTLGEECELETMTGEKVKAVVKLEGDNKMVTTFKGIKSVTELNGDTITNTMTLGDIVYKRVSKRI
Experimental: as §3, §4

[5] = target: T5, PG + 5X 4-HNE treated rL-FABP (Mus musculus, UniProt P12710); test: ANS equilibrium binding to PG + 5X 4-HNE treated rL-FABP
T5 construct: made in house; host or cells: Escherichia coli BL21 (DE3)
T5 sequence (P12710 1-127): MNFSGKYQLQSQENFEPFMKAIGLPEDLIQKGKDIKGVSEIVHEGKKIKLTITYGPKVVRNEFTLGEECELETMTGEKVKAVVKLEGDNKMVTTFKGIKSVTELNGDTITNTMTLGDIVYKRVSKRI
Experimental: as §3, §4

[6] = rL-FABP treated with 1X 4-HNE (53.93 µM)
[7] = rL-FABP treated with 5X 4-HNE (245.09 µM)
[8] = rL-FABP treated with 5X 4-HNE + PG

In the case of `CCO` [ethanol], the “poly-ubiquitinated L-FABP normalized to total L-FABP” value (L-FABP [1]; co-immunoprecipitation, ethanol diet 6 weeks, P<0.001, n = 6) is reported as “significant increase”, the “decrease in FABP1 mRNA (RT-PCR)” value (L-FABP [1]; ethanol diet 6 weeks versus control) is reported as 1.6 fold and the “relative expression of FABP1” value (L-FABP [1]; ethanol livers, control 1.00±0.084, P<0.05, n = 3) is reported as 0.617±0.069. The “reduction in L-FABP protein (1D Western Blot)” value (L-FABP [1]; whole cell lysates, ethanol diet 6 weeks versus control, P<0.001, n = 6) was about 80%, the “decrease in expression of L-FABP” value (L-FABP [2]) was about 30% and the “decrease in the mRNA of FABP1” value (FABP1) was over 50%.
With `CCCCC/C=C\C/C=C\CCCCCCCC(=O)O` [Linoleic Acid] the “br (counts residual)” value (rL-FABP [3]) was 164,800±43,900 AFU, the “n (hill coefficient)” value (rL-FABP [3]) was 1.38±0.26 and the “bi (counts inhibitable)” value (rL-FABP [3]) was 888,000±54 AFU. The Ki (rL-FABP [3]) was 1.56 ± 0.29 µM, the “bi (counts inhibitable)” value (4-HNE adducted rL-FABP) was 449,500±11,400 AFU and the Ki (4-HNE adducted rL-FABP) was 2.8 ± 0.3 µM. For the same molecule, the “br (counts residual)” value (4-HNE adducted rL-FABP) was 96,300±9,200 AFU, the “n (hill coefficient)” value (4-HNE adducted rL-FABP) was 1.76±0.14 and the “reduction of maximal binding to the FA by 4-HNE” value (4-HNE adducted rL-FABP) was 49%.
For `CCCCCCCCCCCCCCCCCC(=O)O` [Stearic Acid], the “br (counts residual)” value (rL-FABP [3]) was 145,800±14,400 AFU, the “n (hill coefficient)” value (rL-FABP [3]) was 2.75±0.264 and the “bi (counts inhibitable)” value (rL-FABP [3]) was 698,800±19,400 AFU. The Ki (rL-FABP [3]) was 1.19 ± 0.13 µM, the “bi (counts inhibitable)” value (4-HNE adducted rL-FABP) was 411,800±36,800 AFU and the Ki (4-HNE adducted rL-FABP) was 4.41 ± 1.66 µM. For the same molecule, the “br (counts residual)” value (4-HNE adducted rL-FABP) was 81,300±30,500 AFU, the “n (hill coefficient)” value (4-HNE adducted rL-FABP) was 2.74±0.37 and the “reduction of maximal binding to the FA by 4-HNE” value (4-HNE adducted rL-FABP) was 41%.
In the case of `O=S(=O)(O)c1cccc2cccc(Nc3ccccc3)c12` [ANS, 1-Anilinonaphthalene-8-Sulfonic Acid], the Kd (rL-FABP [4]) is reported as 0.347 ± 0.153 µM, the Bmax1 (rL-FABP [4]; native rL-FABP (0X 4-HNE), 1 µM protein, primary site) is reported as 540,200±142,500 AFU and the Bmax2 (rL-FABP [4]; native rL-FABP, secondary site) is reported as 500,500±116,800 AFU. The Kd (rL-FABP [4]; read-out: Kd2, native rL-FABP, secondary site) was 6.17 ± 1.44 µM, the “decrease in the affinity for ANS, secondary binding site” value (4-HNE modified rL-FABP; 5X 4-HNE versus native (kd2)) was about 6 fold and the Kd (4-HNE modified rL-FABP; Kd1, rL-FABP treated with 0.1X 4-HNE (5.93 µM)) was 0.132 ± 0.074 µM. For the same molecule, the Kd (4-HNE modified rL-FABP; Kd1, rL-FABP treated with 1X 4-HNE (53.93 µM)) was 0.135 ± 0.074 µM, the Kd (4-HNE modified rL-FABP; Kd1, rL-FABP treated with 5X 4-HNE (245.09 µM)) was 0.395 ± 0.101 µM and the Bmax1 (4-HNE modified rL-FABP; rL-FABP treated with 0.1X 4-HNE (5.93 µM)) was 175,500±36,800 AFU. The Bmax1 (4-HNE modified rL-FABP; [6]) was 123,000±28,900 AFU, the Bmax2 (4-HNE modified rL-FABP; [6]) was 548,900±23,700 AFU and the Bmax1 (4-HNE modified rL-FABP; [7]) was 238,100±21,700 AFU. The Bmax2 (4-HNE modified rL-FABP; [7]) was 537,400±81,900 AFU, the Kd (4-HNE modified rL-FABP; read-out: Kd2, rL-FABP treated with 0.1X 4-HNE (5.93 µM)) was 7.4 ± 1.07 µM and the Kd (4-HNE modified rL-FABP; read-out: Kd2, rL-FABP treated with 1X 4-HNE (53.93 µM)) was 4.99 ± 0.71 µM. The Kd (4-HNE modified rL-FABP; read-out: Kd2, rL-FABP treated with 5X 4-HNE (245.09 µM)) was 34.2 ± 13.9 µM, the Kd (PG treated rL-FABP) was 0.165 ± 0.111 µM and the Bmax1 (PG treated rL-FABP; rL-FABP treated with PG 10 mM) was 83,200±23,200 AFU. For the same molecule, the Bmax2 (PG treated rL-FABP; rL-FABP treated with PG 10 mM) was 446,400±17,500 AFU, the Kd (PG treated rL-FABP; read-out: Kd2, rL-FABP treated with PG 10 mM) was 7.18 ± 0.121 µM and the Kd [5] was 0.326 ± 0.127 µM. The Bmax1 [5, 8] was 168,200±22,900 AFU, the Bmax2 [5, 8] was 512,200±64,500 AFU and the Kd ([5]; read-out: Kd2, rL-FABP treated with 5X 4-HNE + PG) was 27.9 ± 10.7 µM.
